# Measured values as given in ChEMBL document CHEMBL2401728, “An unexpected Dimroth rearrangement leading to annelated thieno[3,2-d][1,2,3]triazolo[1,5-a]pyrimidines with potent antitumor activity” (Eur J Med Chem, 2013).
# Legend:
# Type in all cases: functional
# A549 = assay: Cytotoxicity against human A549 cells assessed as cellular growth at 100 uM after 48 hrs by SRB assay relative to control
# SK-MEL-28 = assay: Cytotoxicity against human SK-MEL-28 cells assessed as cellular growth at 100 uM after 48 hrs by SRB assay relative to control
# CCRF-CEM = assay: Cytotoxicity against human CCRF-CEM cells assessed as cellular growth at 1 uM after 48 hrs by SRB assay relative to control
# Hs-578T [1] = assay: Cytotoxicity against human Hs578T cells assessed as cellular growth at 0.1 uM after 48 hrs by SRB assay relative to control
# Malme-3M = assay: Cytotoxicity against human MALME-3M cells assessed as cellular growth at 100 uM after 48 hrs by SRB assay relative to control
# MDA-MB-468 [2] = assay: Cytotoxicity against human MDA-MB-468 cells assessed as cellular growth at 1 uM after 48 hrs by SRB assay relative to control
# SF-295 = assay: Cytotoxicity against human SF295 cells assessed as cellular growth at 100 uM after 48 hrs by SRB assay relative to control
# 786-0 = assay: Cytotoxicity against human 786-0 cells assessed as cellular growth at 100 uM after 48 hrs by SRB assay relative to control
# SF-268 [3] = assay: Cytotoxicity against human SF268 cells assessed as cellular growth at 0.01 uM after 48 hrs by SRB assay relative to control
# BT-549 [4] = assay: Cytotoxicity against human BT549 cells after 48 hrs by SRB assay; conditions: BT-549, 48 h
# SNB-19 = assay: Cytotoxicity against human SNB19 cells assessed as cellular growth at 1 uM after 48 hrs by SRB assay relative to control
# SF-268 [5] = assay: Cytotoxicity against human SF268 cells assessed as cellular growth at 0.1 uM after 48 hrs by SRB assay relative to control
# K562 = assay: Cytotoxicity against human K562 cells assessed as cellular growth at 0.01 uM after 48 hrs by SRB assay relative to control
# NCI-H23 = assay: Cytotoxicity against human NCI-H23 cells after 48 hrs by SRB assay; conditions: NCI-H23, 48 h
# COLO 205 [6] = assay: Cytotoxicity against human COLO205 cells assessed as cellular growth at 100 uM after 48 hrs by SRB assay relative to control
# MDA-MB-435 = assay: Cytotoxicity against human MDA-MB-435 cells assessed as cellular growth at 100 uM after 48 hrs by SRB assay relative to control
# RXF 393 = assay: Cytotoxicity against human RXF393 cells assessed as cellular growth at 0.01 uM after 48 hrs by SRB assay relative to control
# LOX IMVI = assay: Cytotoxicity against human LOXIMVI cells assessed as cellular growth at 0.01 uM after 48 hrs by SRB assay relative to control
# HCT-116 = assay: Cytotoxicity against human HCT116 cells assessed as cellular growth at 10 uM after 48 hrs by SRB assay relative to control
# SN12C = assay: Cytotoxicity against human SN12C cells assessed as cellular growth at 0.1 uM after 48 hrs by SRB assay relative to control
# [7] = Cytotoxicity against human NCI-ADR-RES cells after 48 hrs by SRB assay
# NCI-H522 = assay: Cytotoxicity against human NCI-H522 cells assessed as cellular growth at 0.1 uM after 48 hrs by SRB assay relative to control
# ACHN [8] = assay: Cytotoxicity against human ACHN cells assessed as cellular growth at 0.1 uM after 48 hrs by SRB assay relative to control
# MCF7 = assay: Cytotoxicity against human MCF7 cells assessed as cellular growth at 100 uM after 48 hrs by SRB assay relative to control
# ACHN [9] = assay: Cytotoxicity against human ACHN cells after 48 hrs by SRB assay
# HOP-62 = assay: Cytotoxicity against human HOP62 cells after 48 hrs by SRB assay; conditions: HOP-62, 48 h
# U-251 = assay: Cytotoxicity against human U251 cells assessed as cellular growth at 100 uM after 48 hrs by SRB assay relative to control
# MDA-MB-468 [10] = assay: Cytotoxicity against human MDA-MB-468 cells assessed as cellular growth at 0.01 uM after 48 hrs by SRB assay relative to control
# OVCAR-4 = assay: Cytotoxicity against human OVCAR4 cells assessed as cellular growth at 1 uM after 48 hrs by SRB assay relative to control
# Hs-578T [11] = assay: Cytotoxicity against human Hs578T cells after 48 hrs by SRB assay
# DU-145 = assay: Cytotoxicity against human DU145 cells after 48 hrs by SRB assay; conditions: DU-145, 48 h
# [12] = Cytotoxicity against human NCI-ADR-RES cells assessed as cellular growth at 1 uM after 48 hrs by SRB assay relative to control
# SK-OV-3 = assay: Cytotoxicity against human SKOV3 cells assessed as cellular growth at 100 uM after 48 hrs by SRB assay relative to control
# COLO 205 [13] = assay: Cytotoxicity against human COLO205 cells assessed as cellular growth at 0.01 uM after 48 hrs by SRB assay relative to control
# HCT-15 = assay: Cytotoxicity against human HCT15 cells after 48 hrs by SRB assay; conditions: HCT-15, 48 h
# BT-549 [14] = assay: Cytotoxicity against human BT549 cells assessed as cellular growth at 0.01 uM after 48 hrs by SRB assay relative to control
# [15] = read-out: LC50 (the source's name)
# [16] = read-out: pLC50 (the source's name) (converted)
structure (smiles),measurement,setting,value
CN1CCN(CCCn2c3c(sc4ncccc43)c(=O)n3nnc(-c4ccccc4)c23)CC1,Activity,A549,-42%
same,Activity,SK-MEL-28,-97%
same,Activity,CCRF-CEM,77%
same,Activity,Hs-578T [1],93%
same,Activity,Malme-3M,-82%
same,Activity,MDA-MB-468 [2],101%
same,Activity,SF-295,-84%
same,Activity,786-0,-58%
same,Activity,SF-268 [3],96%
same,GI50,BT-549 [4]; read-out: GI50,14.7 µM
same,LC50 (concentration killing 50% of cells),BT-549 [4]; read-out: LC50,63.9 µM
same,TGI,BT-549 [4]; read-out: TGI,30.7 µM
same,GI50,BT-549 [4]; read-out: pGI50 (converted),14.8 µM
same,LC50 (concentration killing 50% of cells),BT-549 [4]; read-out: pLC50 (converted),64.6 µM
same,TGI,BT-549 [4]; read-out: pTGI (converted),30.9 µM
same,Activity,SNB-19,107%
same,Activity,SF-268 [5],89%
same,Activity,K562,95%
same,GI50,NCI-H23; read-out: GI50,2.14 µM
same,CC50,NCI-H23; [15],33.7 µM
same,TGI,NCI-H23; read-out: TGI,5.07 µM
same,GI50,NCI-H23; read-out: pGI50 (converted),2.14 µM
same,CC50,NCI-H23; [16],33.9 µM
same,TGI,NCI-H23; read-out: pTGI (converted),5.13 µM
same,Activity,COLO 205 [6],-86%
same,Activity,MDA-MB-435,-83%
same,Activity,RXF 393,100%
same,Activity,LOX IMVI,93%
same,Activity,HCT-116,-92.56%
same,Activity,SN12C,88%
same,GI50,[7]; read-out: GI50,2.23 µM
same,CC50,[7]; [15],43.2 µM
same,TGI,[7]; read-out: TGI,5.8 µM
same,GI50,[7]; read-out: pGI50 (converted),2.24 µM
same,CC50,[7]; [16],43.7 µM
same,TGI,[7]; read-out: pTGI (converted),5.75 µM
same,Activity,NCI-H522,97%
same,Activity,ACHN [8],91%
same,Activity,MCF7,-79%
same,GI50,ACHN [9]; read-out: GI50,1.63 µM
same,CC50,ACHN [9]; [15],6.79 µM
same,TGI,ACHN [9]; read-out: TGI,3.32 µM
same,GI50,ACHN [9]; read-out: pGI50 (converted),1.62 µM
same,CC50,ACHN [9]; [16],6.76 µM
same,TGI,ACHN [9]; read-out: pTGI (converted),3.31 µM
same,GI50,HOP-62; read-out: GI50,1.78 µM
same,CC50,HOP-62; [15],6.11 µM
same,TGI,HOP-62; read-out: TGI,3.3 µM
same,GI50,HOP-62; read-out: pGI50 (converted),1.78 µM
same,CC50,HOP-62; [16],6.17 µM
same,TGI,HOP-62; read-out: pTGI (converted),3.31 µM
same,Activity,U-251,-46%
same,Activity,MDA-MB-468 [10],94%
same,Activity,OVCAR-4,93%
same,GI50,Hs-578T [11]; read-out: GI50,14.9 µM
same,CC50,Hs-578T [11]; [15],> 100 µM
same,TGI,Hs-578T [11]; read-out: TGI,41.7 µM
same,GI50,Hs-578T [11]; read-out: pGI50 (converted),14.8 µM
same,CC50,Hs-578T [11]; read-out: pLC50 (converted),> 100 µM
same,TGI,Hs-578T [11]; read-out: pTGI (converted),41.7 µM
same,GI50,DU-145; read-out: GI50,1.85 µM
same,CC50,DU-145; [15],7.24 µM
same,TGI,DU-145; read-out: TGI,3.66 µM
same,GI50,DU-145; read-out: pGI50 (converted),1.86 µM
same,CC50,DU-145; [16],7.24 µM
same,TGI,DU-145; read-out: pTGI (converted),3.63 µM
same,Activity,[12],92%
same,Activity,SK-OV-3,-95%
same,Activity,COLO 205 [13],95%
same,GI50,HCT-15; read-out: GI50,1.82 µM
same,CC50,HCT-15; [15],8.26 µM
same,TGI,HCT-15; read-out: TGI,3.88 µM
same,GI50,HCT-15; read-out: pGI50 (converted),1.82 µM
same,CC50,HCT-15; [16],8.32 µM
same,TGI,HCT-15; read-out: pTGI (converted),3.89 µM
same,Activity,BT-549 [14],99%
